# Data as given in ChEMBL document CHEMBL1201862, “PubChem BioAssay data set” (2004).
# The source made the active and inactive calls.
# Tests used:
# [1] = off-target signal loss in HeLa-CEM21 co-culture – HeLa F-luc CTL cells, cherry-picked, counter-screen for HIV-1 Env fusion inhibitor project, dose response (AID 652040); type: functional, cell-based;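 further: potency for signal decrease marking cytotoxic or nonspecific inhibition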
# HEK293 [2] = assay: cells; conditions: Homo sapiens
# [3] = ZM109 Env clade C HIV-1 fusion inhibitors, dose response, HeLa effector, CEM target cells, luciferase, cherry-pick (AID 652058); type: functional, cell-based
# HEK293 [4] = assay: cells; conditions: Homo sapiens; remark: listed apart in the source
# [5] = inhibitors of clade B AD8 Env fusion, dose response, cell-based, cherry-pick (AID 652062); type: functional;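 further: luciferase signal from cell-cell fusion driven by HIV-1 clade B AD8 Env; potency is for inhibitors of fusion seen as a drop in luminescence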
# [6] = inhibitors of HIV Env-driven cell fusion, dose response, cherry-pick (AID 652057); type: functional, cell-based
# Cytochrome P450 2D6 = Cytochrome P450 2D6 (Homo sapiens, UniProt P10635);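 further: CYP2D6 member of a cytochrome P450 panel assay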
# [7] = THP-1 cell cytotoxicity, dose response, cytotoxicity control for non-replicating M. tuberculosis project (AID 489025); type: functional
# [8] = target: DNA dC->dU-editing enzyme APOBEC-3G (Homo sapiens, UniProt Q9HC16); assay: Dose Response confirmation of small molecule APOBEC3G DNA Deaminase Inhibitors via a fluorescence-based single-stranded DNA deaminase assay. [Related pubchem assays (depositor defined):AID493012, AID493028]; type: functional
# [9] = target: Glucose-6-phosphate 1-dehydrogenase (Homo sapiens, UniProt P11413); assay: human G6PD enzyme inhibitors, dose response, selectivity assay for P. falciparum G6PD inhibitor project, biochemical, fluorescence (AID 504792); type: functional
# [10] = target: T1, Mannose-6-phosphate isomerase (Homo sapiens, UniProt P34949); assay: human PMI inhibitors, high substrate, primary screen, biochemical, fluorescence intensity, high mannose 6-phosphate (AID 1220)
# T1 sequence (P34949 whole entry): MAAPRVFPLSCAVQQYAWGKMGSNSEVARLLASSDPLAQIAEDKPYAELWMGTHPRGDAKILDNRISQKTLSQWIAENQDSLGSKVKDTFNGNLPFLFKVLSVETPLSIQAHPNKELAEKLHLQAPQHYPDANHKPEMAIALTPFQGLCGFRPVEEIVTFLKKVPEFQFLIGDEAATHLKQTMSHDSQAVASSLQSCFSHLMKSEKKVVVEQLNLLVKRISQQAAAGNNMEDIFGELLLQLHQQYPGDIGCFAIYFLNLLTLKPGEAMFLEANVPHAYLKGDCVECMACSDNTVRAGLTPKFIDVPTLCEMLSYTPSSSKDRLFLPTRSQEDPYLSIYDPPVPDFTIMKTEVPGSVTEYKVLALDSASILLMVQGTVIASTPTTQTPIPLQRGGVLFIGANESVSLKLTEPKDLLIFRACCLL
# Large T antigen = Large T antigen (Simian virus 40, UniProt P03070); type: functional, Betapolyomavirus macacae;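 further: Confirmatory-stage PubChem screen for compounds that inhibit SV40 T antigen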
# [11] = target: T1, Mannose-6-phosphate isomerase; assay: inhibitors of human PMI, primary screen, biochemical, fluorescence intensity, coupled assay (AID 1209)
# [12] = target: DNA dC->dU-editing enzyme APOBEC-3A (Homo sapiens, UniProt P31941); assay: APOBEC3A DNA deaminase inhibitors, dose response, biochemical (AID 504722); type: functional
# [13] = target: T1, Mannose-6-phosphate isomerase; assay: PMI enzyme inhibitors, confirmation, biochemical, fluorescence intensity (AID 1535)
# Phosphomannomutase 2 = Phosphomannomutase 2 (Homo sapiens, UniProt O15305); assay: Counter screen SAR assay for PMM2 inhibitors via a fluorescence intensity assay. [Related pubchem assays (depositor defined):AID1545, AID1574]
# Cytochrome P450 2C9 = Cytochrome P450 2C9 (Homo sapiens, UniProt P11712)
# Cytochrome P450 2C19 = Cytochrome P450 2C19 (Homo sapiens, UniProt P33261); assay: Cytochrome panel assay with activity outcomes. Panel member name: p450-cyp2c19 Compounds with AC50 equal or less than 10 uM are considered active; type: functional; conditions: read-out: AC50
# [14] = target: T2, Sentrin-specific protease 1 (Homo sapiens, UniProt Q9P0U3); assay: Dose response confirmation of small molecule inhibitors of the catalytic domain of the SUMO protease, SENP1 in a FRET assay.; type: functional; conditions: read-out: IC50_Mean
# T2 sequence (Q9P0U3 whole entry): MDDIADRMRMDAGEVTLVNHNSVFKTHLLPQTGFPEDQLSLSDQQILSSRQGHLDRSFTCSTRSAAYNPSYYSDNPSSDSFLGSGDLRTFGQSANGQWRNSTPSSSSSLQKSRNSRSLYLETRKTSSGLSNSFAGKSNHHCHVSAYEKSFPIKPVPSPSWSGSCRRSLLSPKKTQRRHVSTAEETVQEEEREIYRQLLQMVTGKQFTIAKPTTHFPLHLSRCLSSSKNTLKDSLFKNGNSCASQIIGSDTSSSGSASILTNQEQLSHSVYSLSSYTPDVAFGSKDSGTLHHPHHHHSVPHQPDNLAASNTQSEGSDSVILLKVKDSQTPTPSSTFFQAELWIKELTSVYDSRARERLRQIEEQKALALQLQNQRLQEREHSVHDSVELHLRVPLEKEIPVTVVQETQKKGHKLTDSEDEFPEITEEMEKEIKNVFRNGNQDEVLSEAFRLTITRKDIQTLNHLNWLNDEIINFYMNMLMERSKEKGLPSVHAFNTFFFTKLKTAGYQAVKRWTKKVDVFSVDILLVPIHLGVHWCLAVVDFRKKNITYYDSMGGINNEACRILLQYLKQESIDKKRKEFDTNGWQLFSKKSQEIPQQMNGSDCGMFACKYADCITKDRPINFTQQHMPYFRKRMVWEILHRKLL
# [15] = target: T2, Sentrin-specific protease 1; assay: potency of human SENP1 inhibitors, dose response, biochemical, kinetic FRET (AID 651697); type: functional; conditions: read-out: IC50_Mean
# Chain of Cytochrome P450 2D6 (P10635 whole entry): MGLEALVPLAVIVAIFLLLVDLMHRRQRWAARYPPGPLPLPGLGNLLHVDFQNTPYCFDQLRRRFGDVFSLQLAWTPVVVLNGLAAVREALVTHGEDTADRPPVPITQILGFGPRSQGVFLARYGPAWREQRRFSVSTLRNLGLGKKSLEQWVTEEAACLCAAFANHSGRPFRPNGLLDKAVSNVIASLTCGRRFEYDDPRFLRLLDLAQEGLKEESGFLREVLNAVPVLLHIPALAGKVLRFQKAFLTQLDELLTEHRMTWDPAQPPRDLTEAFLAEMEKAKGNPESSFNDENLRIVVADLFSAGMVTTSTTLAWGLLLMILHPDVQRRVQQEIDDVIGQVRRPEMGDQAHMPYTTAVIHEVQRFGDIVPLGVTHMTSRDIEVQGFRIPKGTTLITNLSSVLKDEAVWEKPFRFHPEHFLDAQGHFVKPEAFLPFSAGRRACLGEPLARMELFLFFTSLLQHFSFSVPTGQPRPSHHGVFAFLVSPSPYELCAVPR
# Chain of DNA dC->dU-editing enzyme APOBEC-3A (P31941 whole entry): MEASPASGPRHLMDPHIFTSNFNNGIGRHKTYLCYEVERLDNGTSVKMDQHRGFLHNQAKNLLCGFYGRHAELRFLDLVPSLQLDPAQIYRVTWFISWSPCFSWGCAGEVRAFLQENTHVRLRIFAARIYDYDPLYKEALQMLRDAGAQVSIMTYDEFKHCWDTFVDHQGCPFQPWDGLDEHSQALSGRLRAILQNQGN
# Chain of DNA dC->dU-editing enzyme APOBEC-3G (Q9HC16 whole entry): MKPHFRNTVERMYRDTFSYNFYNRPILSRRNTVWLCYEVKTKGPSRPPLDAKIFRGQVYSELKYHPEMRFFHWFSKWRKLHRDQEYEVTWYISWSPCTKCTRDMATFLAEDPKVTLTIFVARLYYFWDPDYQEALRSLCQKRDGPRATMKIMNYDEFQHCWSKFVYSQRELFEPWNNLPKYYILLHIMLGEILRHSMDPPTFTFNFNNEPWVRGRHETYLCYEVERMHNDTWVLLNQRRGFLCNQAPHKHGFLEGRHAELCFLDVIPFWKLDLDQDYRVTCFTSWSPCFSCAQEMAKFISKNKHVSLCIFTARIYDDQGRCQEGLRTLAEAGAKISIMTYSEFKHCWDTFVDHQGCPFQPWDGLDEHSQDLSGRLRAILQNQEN
# Chain of Phosphomannomutase 2 (O15305 whole entry): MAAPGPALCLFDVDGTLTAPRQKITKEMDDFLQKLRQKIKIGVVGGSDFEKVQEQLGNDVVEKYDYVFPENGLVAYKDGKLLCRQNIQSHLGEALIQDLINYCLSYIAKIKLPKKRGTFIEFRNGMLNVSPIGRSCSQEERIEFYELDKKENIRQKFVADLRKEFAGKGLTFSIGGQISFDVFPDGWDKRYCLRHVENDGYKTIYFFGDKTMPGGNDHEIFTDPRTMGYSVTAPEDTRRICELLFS
# Chain of Cytochrome P450 2C19 (P33261 whole entry, the tested form may be a part): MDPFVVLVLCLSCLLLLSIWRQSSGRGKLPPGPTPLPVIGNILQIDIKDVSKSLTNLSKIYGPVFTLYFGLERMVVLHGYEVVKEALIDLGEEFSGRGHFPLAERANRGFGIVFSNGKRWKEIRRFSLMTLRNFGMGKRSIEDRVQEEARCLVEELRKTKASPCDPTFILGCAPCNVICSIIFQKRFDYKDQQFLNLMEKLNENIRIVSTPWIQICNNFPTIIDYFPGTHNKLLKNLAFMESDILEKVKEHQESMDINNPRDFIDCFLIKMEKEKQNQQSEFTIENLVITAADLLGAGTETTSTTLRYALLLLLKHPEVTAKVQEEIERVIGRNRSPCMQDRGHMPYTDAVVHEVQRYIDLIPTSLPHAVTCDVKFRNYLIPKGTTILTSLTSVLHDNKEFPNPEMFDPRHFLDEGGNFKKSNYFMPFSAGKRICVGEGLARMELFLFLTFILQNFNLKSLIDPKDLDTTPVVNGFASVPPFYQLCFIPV
# Chain of Large T antigen (P03070 whole entry): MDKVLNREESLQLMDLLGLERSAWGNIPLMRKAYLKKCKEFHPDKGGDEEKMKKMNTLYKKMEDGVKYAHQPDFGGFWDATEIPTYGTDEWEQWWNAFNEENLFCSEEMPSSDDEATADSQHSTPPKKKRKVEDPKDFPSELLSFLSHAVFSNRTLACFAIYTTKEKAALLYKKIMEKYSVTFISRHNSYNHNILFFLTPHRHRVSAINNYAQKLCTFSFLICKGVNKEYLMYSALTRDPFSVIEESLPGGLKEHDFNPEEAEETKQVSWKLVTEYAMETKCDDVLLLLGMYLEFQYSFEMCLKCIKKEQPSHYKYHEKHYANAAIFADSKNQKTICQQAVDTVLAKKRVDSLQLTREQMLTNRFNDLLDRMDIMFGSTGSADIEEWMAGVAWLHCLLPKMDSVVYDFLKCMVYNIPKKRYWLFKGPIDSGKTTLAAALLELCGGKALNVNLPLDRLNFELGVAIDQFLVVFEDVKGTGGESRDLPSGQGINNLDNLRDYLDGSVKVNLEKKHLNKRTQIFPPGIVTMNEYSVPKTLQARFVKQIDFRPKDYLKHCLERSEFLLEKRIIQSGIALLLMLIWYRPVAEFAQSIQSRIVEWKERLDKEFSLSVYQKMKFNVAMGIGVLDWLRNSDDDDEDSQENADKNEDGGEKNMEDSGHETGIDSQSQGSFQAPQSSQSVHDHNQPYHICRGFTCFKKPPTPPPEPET
# Chain of Glucose-6-phosphate 1-dehydrogenase (P11413 whole entry): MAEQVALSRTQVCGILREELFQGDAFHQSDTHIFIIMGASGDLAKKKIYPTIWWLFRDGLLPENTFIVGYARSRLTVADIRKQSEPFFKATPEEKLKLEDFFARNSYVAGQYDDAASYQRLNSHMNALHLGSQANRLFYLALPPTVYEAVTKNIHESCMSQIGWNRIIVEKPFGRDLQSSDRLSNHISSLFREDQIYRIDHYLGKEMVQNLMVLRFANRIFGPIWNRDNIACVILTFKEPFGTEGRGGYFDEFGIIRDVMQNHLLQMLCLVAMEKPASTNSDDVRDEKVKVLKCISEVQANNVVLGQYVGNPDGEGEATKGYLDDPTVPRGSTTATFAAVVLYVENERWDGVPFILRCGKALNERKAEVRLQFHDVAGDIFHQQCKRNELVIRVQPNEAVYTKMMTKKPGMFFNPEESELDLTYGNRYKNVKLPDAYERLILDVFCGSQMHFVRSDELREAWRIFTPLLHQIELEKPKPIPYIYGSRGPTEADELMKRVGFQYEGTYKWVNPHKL
# Chain of Cytochrome P450 2C9 (P11712 whole entry): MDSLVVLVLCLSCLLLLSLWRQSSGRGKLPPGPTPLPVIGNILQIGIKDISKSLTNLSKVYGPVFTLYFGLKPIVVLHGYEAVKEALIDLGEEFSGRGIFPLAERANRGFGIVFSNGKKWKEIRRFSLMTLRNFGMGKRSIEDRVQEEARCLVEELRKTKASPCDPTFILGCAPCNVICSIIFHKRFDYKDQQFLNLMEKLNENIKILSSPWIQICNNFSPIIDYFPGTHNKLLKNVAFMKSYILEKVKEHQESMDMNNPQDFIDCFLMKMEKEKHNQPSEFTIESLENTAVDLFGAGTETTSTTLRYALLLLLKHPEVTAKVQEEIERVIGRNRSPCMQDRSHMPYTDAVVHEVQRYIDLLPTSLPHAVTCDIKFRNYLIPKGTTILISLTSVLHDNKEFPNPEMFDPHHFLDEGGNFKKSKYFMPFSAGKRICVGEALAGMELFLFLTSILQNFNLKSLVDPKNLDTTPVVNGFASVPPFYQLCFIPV
smiles,measurement,setting,value
CCN(C[C@H]1N[C@@](CC)(C(=O)OC)[C@H]2C(=O)N(Cc3ccccc3)C(=O)[C@@H]12)S(=O)(=O)c1ccc(OC)cc1,AC50,[1],1.89 µM (active)
same,EC50,HEK293 [2],> 59.6 µM (inactive)
same,AC50,[3],3.76 µM (active)
same,EC50,HEK293 [4],> 59.6 µM (inactive)
same,AC50,[5],7.2 µM (active)
same,AC50,[6],1.64 µM (active)
N/C(CC/C(N)=N/O)=N\O,AC50,Cytochrome P450 2D6,inconclusive
Cc1ccnc(-n2sc3ccccc3c2=O)n1,CC50,[7],> 40 µM (active)
same,IC50,[8],15.4 µM (active)
same,IC50,[9],36.1 µM (inactive)
same,IC50,[10],17.8 µM (active)
same,IC50,Large T antigen,12.5 µM (active)
same,IC50,[11],11.2 µM (active)
same,IC50,[12],> 100 µM (inactive)
same,IC50,[13],4.43 µM (active)
same,IC50,Phosphomannomutase 2,65.9 µM (active)
CCOc1ccc(/C=C/C(=O)Nc2ccc(OC)cc2[N+](=O)[O-])cc1,AC50,Cytochrome P450 2C9,inconclusive
same,AC50,Cytochrome P450 2C19,39.8 µM (inconclusive)
same,IC50,[14],5.84 µM (active)
same,IC50,[15],6.32 µM (active)
same,AC50,Cytochrome P450 2D6,inconclusive
